Laboratory results published in patent US6900026B2, “Methods for identifying compounds as antioxidants” (priority 1996, dated 2005).

How the values were obtained:
Sod2CJE(−/−) mice = assay: Survival (lifespan) of Sod2CJE(−/−) mice given daily intraperitoneal test compound; type: in vivo, mouse; details: for mean life-span: Sod2CJE(−/−) pups, Euk-8 daily 30 mg/kg, MnTBAP-treated pups
Method: Mice lacking functional MnSOD have been described by Li et al. (1995) Nature Genetics 11:376-381, incorporated herein by reference. The genotypes of one-day-old pups are determined by genetic analysis of tissue surgically excised from the toe or tail tip (2-3 mm). In these mice the third exon of the Sod2 gene has been deleted, thus, destroying the ability to synthesize an active mitochondrial MnSOD.
Litters were grouped into two sizes: large, >6 pups/litter of mutant, heterozygous and normal pups; and small, ≦6 Sod2CJE(−/−) pups/litter, in which the wild type and heterozygous pups were removed at three days of age to ensure that the homozygous mutant pups had unrestricted access to food and nurturing.
(§1) In most experiments, MnTBAP was prepared for injection by dissolving in 0.1 M NaOH, diluted with sterile water to a dosage level of 5 mg MnTBAP/kg, and administered by daily intra-peritoneal (IP) injections of between 10 and 45 μl, 2 hours post weighing, from 3 days of age. In addition to homozygous mutant animals, both heterozygotes and wild-type animals were injected to serve as controls. Wild-type or heterozygous Sod2CJE pups were sacrificed at the same age as Sod2CJE(−/−) pups to serve as controls.
Mouse pups are injected intraperitoneally with test compounds with a 50 microliter Hamilton syringe and a 31 G needle. The maximum volume administered to pups younger than 6 days of age is 20 μl. Injections are given daily, at the same time per day ±2 hours.
The MnTBAP stock solution is diluted down to the administered dose, which is dependent on body weight. For MnTBAP, the dosage is 5 mg/kg per day. Pups are weighed daily to allow calculation of the appropriate dosage.
Survival analysis was carried out by examining the animals daily to determine mortality, and entering the results into a life-table in the program Statistica (Statsoft, Tulsa, Okla.). Comparison between groups was carried out using the Kaplan and Meier survival function, non-parametric t-tests, and the Gehans Wilcoxon statistic from within the program to compare groups.
In general, experiments are carried out with Sod2CJE(−/−) mice, starting at 3 days of age, and the mice are weighed and divided into test and control groups. Test mice receive the compound for which evaluation as an antioxidant is desired at a dosage which is below the level of toxicity. Unless otherwise indicated, the test compound is administered in a pharmaceutically acceptable carrier by the intraperitoneal route. Unless otherwise determined to be advantageous, the test compound is administered at the same time each day (±2 hours).

Sod2CJE(−/−) animals [1] = assay: Behavioral analysis and neuropathology of treated Sod2CJE(−/−) animals; type: in vivo; details: for neurological and behavioral phenotype: treated Sod2CJE(−/−) mice
Method: Treated Sod2CJE(−/−) animals were observed daily from 10 days through to greater than five weeks for behavioral abnormalities compared to litter mate controls. Daily video recordings of up to 10 minutes were made to longitudinally track the development of behavioral changes. A total of 187 video recordings were made of 63 animals from 10 to 23 days of age.
For pathology, the brains were removed from the sacrificed animals and fixed in 10% buffered formalin for up to 7 days. They were then processed, embedded, and sectioned. In some cases representative sections were made every 20 sections or so at 7 microns thickness throughout the brain and stained with hematoxylin and eosin for examination by light microscopy. In other cases, the entire brain was sectioned at 8 microns throughout. Fifteen Sod2CJE(−/−) brains between 11 and 23 days of age were examined by hematoxylin and eosin staining and light microscopy in coronal, sagittal, or horizontal orientations with 17 controls in a blinded study (4 heterozygotes and 6 wild-types treated; and 2 heterozygotes and 5 wild-types untreated).
During the course of an experiment, each mouse is evaluated daily for weight, lethargy, lack of appetite, its vital signs and for any indication of neurological disorders (observed for circling behavior, dystonia, trembling or the like. Video records can be made for later evaluation, for example for side-by-side comparisons or for observing changes over time. Cardiac histopathology and central nervous system tissue analysis are carried out after death of the animal or after sacrifice of the animal.

Sod2CJE(−/−) animals [2] = assay: Lipid in liver by Oil red-O staining, treated Sod2CJE(−/−) animals; type: in vivo, mouse; parameters: key to Lipid Mode (score): 0=no observable lipid in sections; 1=mild diffuse speckled distribution of lipid; 2=more intense speckled pattern; 3=coalescence of small lipid droplets into large intercellular droplets; 4=massive intercellular lipid droplet accumulation; details: for accumulation of lipid in the liver: treated MnSOD-deficient homozygotes, qualitative; for Lipid % Control / Lipid Mean (score) / Lipid Mode (score): MnTBAP treated Sod2CJE(−/−); for Lipid % Control: control = untreated (−/−) 6-10 days; for Lipid Mean (score) / Lipid Mode (score): score 0-4
Description: (see also Table 2). […] The level of lipid in liver sections was scored as follows: 0=no observable lipid in sections, 1=mild diffuse speckled distribution of lipid, 2=more intense speckled pattern, 3=coalescence of small lipid droplets into large intercellular droplets, and 4=massive intercellular lipid droplet accumulation. Wild-type or heterozygotes treated with MnTBAP for 3 weeks had no observable difference in the morphology of the liver compared to untreated controls (+/+or +/−). The livers of 25 MnTBAP treated Sod2CJE(−/−) animals were examined at 12, 14 and 17 days of age (Table 2) and compared with treated wild type animals.
Assessment of the effect of MnTBAP treatment on liver morphology was carried out by blind assessment of wild-type and heterozygous animals chronically treated with compound for 3 weeks. Hematoxylin and Eosin stained sections from 27 treated homozygous normal (+/+) and heterozygous (+/−) animals were compared with 2 untreated control animals. To evaluate lipid in the liver of treated homozygous mutant MnSOD(−/−) animals, 8 u frozen sections were prepared and stained with Oil red O [Li et al. (1995) supra]. Each section was evaluated for the quantity and size of lipid droplets by arbitrarily scoring with a numerical value (Table 2). The ratings of multiple animals were then averaged.

[3] = test system: succinate dehydrogenase (SDH, Complex II); assay: Histochemical staining of succinate dehydrogenase (SDH, Complex II) in tissue of treated MnSOD-deficient homozygotes; type: in vivo, mouse
Description: Fat accumulates in the liver, where it can be detected by Oil Red O staining. […] By contrast, in Euk-8 treated animals both the lipid accumulation in the liver and SDH inhibition are rescued.

[4] = test system: control animals (+/+, +/−); assay: Pathology of liver, brain and heart in treated control animals (+/+, +/−); type: in vivo, mouse; details: control animals (+/+, +/−) treated with MnTBAP
Method: as §1
For pathology, the brains were removed from the sacrificed animals and fixed in 10% buffered formalin for up to 7 days. They were then processed, embedded, and sectioned. In some cases representative sections were made every 20 sections or so at 7 microns thickness throughout the brain and stained with hematoxylin and eosin for examination by light microscopy. In other cases, the entire brain was sectioned at 8 microns throughout. […]
Assessment of the effect of MnTBAP treatment on liver morphology was carried out by blind assessment of wild-type and heterozygous animals chronically treated with compound for 3 weeks. […] Each section was evaluated for the quantity and size of lipid droplets by arbitrarily scoring with a numerical value (Table 2). […]

cells = details: in vitro; cited from earlier work
[5] = mice, after the barrier is established at about 7-12 days of age; cited from earlier work
[6] = Transmission of orally administered compound to the milk of nursing mothers; type: in vivo, mouse
Description: The skilled artisan understands how to test a particular compound for its toxicity in a particular mammal, for its ability to cross the blood-brain barrier and for its ability to enter the bloodstream and/or the cerebrospinal fluid. Preferred compounds are those which readily enter circulation and the central nervous system so that maximum amelioration of any disorder or disease resulting from oxidative damage, especially from superoxide radical.

[7] = in vitro; cited from earlier work
Sod2CJE(−/−) animals [8] = assay: Cardiac measurements and histology in treated Sod2CJE(−/−) animals; type: in vivo, mouse; details: 20-21 days of age
Method: Cardiac dimensions were measured at 21 days of age for wild-type and heterozygous animals. These were compared with homozygous mutant animals treated with MnTBAP as described [Li et al. (1995) supra].

[9] = SOD2−/− mice treated with free radical scavenging compounds (Table 4)
[10] = Sod2CJE(−/−), Large litter size (>6 pups), with MnTBAP, N=16
[11] = Sod2CJE(−/−), Small litter size (≦6 pups), with MnTBAP, N=15
[12] = Sod2CJE(−/−), all litter sizes, with MnTBAP 5 mg/kg daily IP, N=31, days of age

## [Cl-].[Mn+3].[O-]c1ccccc1C=NCCN=Cc1ccccc1[O-] [Euk-8]
Sod2CJE(−/−) mice; [9]
  Mean Lifespan: 22 days
Sod2CJE(−/−) mice
  mean life-span: 22 days
Sod2CJE(−/−) animals [1]; concluded from beneficial effects on neuronal function in Sod2CJE(−/−) mouse
  crossing of the blood brain barrier: crosses the blood brain barrier
Sod2CJE(−/−) animals [1]
  neurological and behavioral phenotype: rescue of the neurological and behavioral phenotype
Sod2CJE(−/−) animals [1]; treated Sod2CJE(−/−) mouse, at 17 days
  spongiform encephalopathy: absent
Sod2CJE(−/−) animals [2]
  accumulation of lipid in the liver: rescued
[3]
  tissue SDH inhibition: rescued

## O=C(O)c1ccc(-c2c3nc(c(-c4ccc(C(=O)O)cc4)c4ccc([nH]4)c(-c4ccc(C(=O)O)cc4)c4nc(c(-c5ccc(C(=O)O)cc5)c5ccc2[nH]5)C=C4)C=C3)cc1.[Mn] [MnTBAP, Manganese 5,10,15,20-tetrakis(4-benzoic acid) porphyrin]
Sod2CJE(−/−) mice; MnSOD(−/−) mice, 5 mg/kg daily intraperitoneal, all litters, n=31, ±SD
  mean age of survival: 16.4 ± 5.8 days
Sod2CJE(−/−) mice; MnSOD(−/−) mice, 5 mg/kg daily intraperitoneal, n=31
  proportion of mice that lived to greater than or equal to 20 days of age: 70%
Sod2CJE(−/−) mice; [9]
  Mean Lifespan: 14 days
Sod2CJE(−/−) mice
  mean life-span: 16 days
Sod2CJE(−/−) mice; [10]
  Mean Lifespan: 16.1
  Median (lifespan): 21
Sod2CJE(−/−) mice; [11]
  Mean Lifespan: 16.6
  Median (lifespan): 19
Sod2CJE(−/−) mice; [12]
  Mean Lifespan: 16.4
  Median (lifespan): 20
Sod2CJE(−/−) mice; litters of more than six pups (unrestricted), ±SD
  mean age of survival: 16.1 ± 6.6 days
Sod2CJE(−/−) mice; litters with six or less pups (restricted), ±SD
  mean survival: 11.4 ± 4.8 days
Sod2CJE(−/−) animals [1]
  neurological and behavioral phenotype: progressive motor impairment
[4]
  toxicity (pathological changes in liver or brain): not toxic
cells
  permeability to cells: permeable to cells
[5]
  crossing of the blood-brain barrier: does not cross the blood-brain barrier
Sod2CJE(−/−) animals [2]; 25 treated animals examined at 12, 14 and 17 days of age (2/25)
  proportion of treated Sod2CJE(−/−) animals with liver lipid levels comparable to untreated Sod2CJE(−/−) animals of 6-10 days: 8%
Sod2CJE(−/−) animals [2]; 12 days old, n=9
  Lipid % Control: 23%
  Lipid Mean (score): 0.9
  Lipid Mode (score): 0
Sod2CJE(−/−) animals [2]; 14 days old, n=8
  Lipid % Control: 23%
  Lipid Mean (score): 0.9
  Lipid Mode (score): 0.5
Sod2CJE(−/−) animals [2]; 17 days old, n=8
  Lipid % Control: 40%
  Lipid Mean (score): 1.6
  Lipid Mode (score): 2
Sod2CJE(−/−) animals [2]
  accumulation of lipid in the liver: reduced
[6]
  transmission to the milk of nursing mothers: insufficient transmission
[7]
  superoxide-degrading activity relative to Sod1/Sod2 when compared by weight: about 10%
[3]
  tissue SDH inhibition: still inhibited
Sod2CJE(−/−) animals [8]
  effect on cardiac defect (dilated cardiomyopathy): prevented the cardiac defect
